{
  "source": "the NIST ThermoML archive (doi:10.1016/j.jct.2016.10.029)",
  "key": {"[1]": {"conditions": "Crystal; DTA"}, "[2]": {"assay": "Molar enthalpy of transition or fusion", "conditions": "Crystal; DSC"}},
  "note": "Numbers after ± are expanded uncertainties.",
  "data": [
    {"smiles": "CCOc1cc(C=O)ccc1O", "note": "[3-ethoxy-4-hydroxybenzaldehyde]", "values": [
      {"measurement": "Normal melting temperature", "setting": "[1]", "result": "79.83 ± 1.1", "unit": "°C"},
      {"measurement": "Molar enthalpy of transition or fusion", "setting": "[2]", "result": "5.68 ± 0.263", "unit": "kcal/mol"}
    ]}
  ]
}
